Source: US5972923A, “Methods and compositions to enhance the cytoprotective effects of polycyclic phenolic compounds through the synergistic interaction with anti-oxidants” (priority 1998, dated 1999)
Like-named read-outs stand apart in the source and are kept apart here.

How the values were obtained:
[1] = test system: HT-22 cells; assay: Effects of 17β-estradiol and its BSA conjugate on βAP 25-35 induced toxicity on HT-22 cells (trypan blue); details: for Live Cell Number ± SEM: 3.25 μM GSH, 48 h
Experimental: Experiments were initiated by plating cells in Nunc^X 24 well plate and cells were allowed to attach for 4 h before treatment.

[2] = test system: rat primary cortical neurons; assay: Neuroprotection against βAP 25-35 in rat primary cortical neurons (LIVE/DEAD kit); details: for EC50: Rattus norvegicus, Primary cortical neuron
Experimental: Primary Rat Cortical Culture: Primary neuronal cultures were prepared according to the method used by Chandler et al. Alcoholism: Clinical and Experimental Research, 17 (1993) 54-60.
Once treatments were added, primary cultures were incubated for an additional 24 h and viability determined using the LIVE/DEAD® viability/cytotoxicity kit (Molecular Probes, Eugene, Oreg.) according to manufacturer's instructions. Live cells are distinguished by the presence of intracellular esterase activity which cleaves the calcein AM dye, producing a bright green fluorescence when excited. Ethidium homodimer enters cells with damaged membranes, and upon binding to nucleic acids, produces a red fluorescence. Both dyes are excited at 485 nm, and cultures plates were viewed with a fluorescent microscope (Nikon Diaphot-300). Three random fields were photographed, and the average number of live cells per field was determined by counting the number of bright green cells.

[3] = test system: SK-N-SH cells; assay: Dose response of neuroprotection by GSH or 17β-estradiol against βAP 25-35 in SK-N-SH cells (trypan blue); type: cell-based, human; details: for EC50: Homo sapiens, SK-N-SH
Experimental: Media was changed three times weekly.
Cells were suspended by repeated pipetting.
After 72 hours incubation, live cells were determined with Trypan Blue exclusion.
After 72 hours incubation, the cells were stained with Trypan Blue. […] (FIG. 3).

[4] = test system: HT-22 cells; assay: Effects of estratrienes with and without glutathione on neurotoxicity of βAP 25-35 in HT-22 cells; details: for neuroprotection: concurrent treatment with βAP 25-35; for EC50: Mus musculus; for decrease in cell viability: β-AP (25-35)
Experimental: Experiments were initiated by plating cells in Nunc^X 24 well plate cells were allowed to attach for 4 h before treatment. […] After 48 h cells were suspended and viability determined using the trypan blue dye exclusion method (Tennant 1964). Steroids and βAP were prepared as previously described (Green et al. 1996). ED50 values were analyzed by a two way Analysis of Variance. Differences among effects were determined by a Scheffe's post hoc analysis with a p<0.05 considered significant. […] Data are normalized to the βAP free control group as 100% protection and the βAP alone group as 0% protection.

[5] = test system: SK-N-SH cells; assay: Live cell number of SK-N-SH cells with βAP 25-35 induced toxicity (trypan blue exclusion), 17β-estradiol and anti-oxidants; details: for interaction with estrogen: combination with estrogen
Experimental: The assay utilized the human neuroblastoma cells SK-N-SH.
Materials: Lyophilized βAP 25-35 (1 mg) (Bachem, Torrance, Calif.) was initially dissolved in 200 μl ddH20 and with the addition of 800 μl of PBS, rapid aggregation was observed. […] Lipoic acid (thiotic acid), taurine (2-aminoethanoic acid), and ascorbic acid were initially dissolved in cell culture media and used at the concentrations indicated. Unless otherwise noted, materials were obtained from Sigma Chemical Corp SK-N-SH Neuroblastoma Cell Culture: SK-N-SH neuroblastoma cells were obtained from American Type Tissue Collection (Rockville, Md.). Cell cultures were grown to confluency in RPMI-1640 media (Fisher Scientific, Inc.) supplemented with 10% charcoal/dextran-treated fetal bovine serum (FBS), (Hyclone®), Logan, Utah), 100 U/ml penicillin G and 100 mg/ml streptomycin (Sigma Chemical Corp.) in monolayers in Corning 150 cm^2 flasks (Fisher Scientific, Inc.) at 37° C. under 5% CO2, 95% air. Media was changed three times weekly.
(a) SK-N-SH cells used in the following experiments were in passes 4 to 12. The growth media was initially decanted and the cells were rinsed with 0.02% EDTA for 30 min at 37° C. Cells were then counted on a Neubauer hemacytometer (Fisher Scientific) and resuspended in appropriate media. Studies were initiated by plating 1×10^6 cells per well in 24 well plates, allowing attachment in regular media and then decanting that media and replacing with the appropriate treatment after 4 h.
SK-N-SH cell viability was determined utilizing the trypan blue exclusion method (Black and Berenbaum, 1964; Tennant, 1964). After 72 h of incubation, treatment media was decanted and cells were lifted by incubating with 0.2 ml 0.02% EDTA for 30 min at 37° C. Cells were suspended by repeated pipetting. One-hundred μl aliquots from each cell suspension were incubated with 100 μl aliquots of 0.4 % trypan blue stain for 5 min at room temperature. All suspensions were counted on a Neubauer hemacytometer within 10 min of addition of trypan blue stain. Two independent counts of live and dead cells were made for each aliquot.
Statistics: The significant treatment effects on cell viability were determined using ANOVA followed by Scheffe's post hoc test, with significance determined at p<0.05. For dose-response evaluations, EC50 values were calculated by randomly assigning cell counts at the indicated doses to generate 3-5 lines per treatment and determining the average value for those lines. Mann-Whitney Rank Sum non-parametric analysis were used on EC50 values because the variances for the standard deviation were not equivalent.

[6] = βAP 25-35 (20 μM) + TRT (anti-oxidant), 72 h
[7] = βAP 25-35 (20 μM) + βE2 + TRT (anti-oxidant), 72 h
[8] = HT-22, read-out: ED50, absence of GSH
[9] = HT-22, read-out: ED50, presence of GSH

Compound: 17β-estradiol-6-(carboxymethyl) oxime: BSA [β17-E2:BSA]
- ability to protect HT22 cells from βAP (25-35) toxicity ([1]; BSA conjugate containing 20 μM 17β-estradiol, presence of GSH): abolished the ability of the steroid to protect HT22 cells
- Live Cell Number ± SEM ([1]; βAP (20 μM) + 20 μM β17-E2:BSA): 216 ± 17 ×10^3 cells

Compound: C[C@]12CC[C@@H]3c4ccc(O)cc4CC[C@H]3[C@@H]1CC[C@@H]2O [17β-estradiol]
- EC50 ([2]; absence of GSH): 68.1 ± 79 nM
- EC50 ([2]; presence of GSH): 4.3 ± 5.9 nM
- neuroprotection ([3]; 200 nM 17β-estradiol, absence of glutathione): Neuroprotection was observed
- EC50 ([3]; 72 h, read-out: ED50 of 17β-estradiol, Aβ 25-35 (20 μM), absence of glutathione, 72 h): 100 nM
- EC50 ([3]; 72 h, read-out: ED50 of 17β-estradiol, Aβ 25-35 (20 μM), presence of glutathione (3.25 μM), 72 h): 0.02 nM
- EC50 ([3]; read-out: EC50 (17β-estradiol dose response, FIG. 3), βAP 25-35 (20 μM), without GSH): 126 ± 87.8 nM
- neuroprotection [4]: dose-dependent neuroprotection
- live cell number ([5]; βAP + βE2, Ascorbic Acid column): 144 ± 9
- live cell number ([5]; βAP + βE2, GSH column): 357 ± 19
- live cell number ([5]; βAP + βE2, GSSG column): 357 ± 19

Compound: O=C1O[C@H]([C@@H](O)CO)C(O)=C1O [Ascorbic Acid, ascorbic acid]
- interaction with estrogen [5]: no apparent interactions
- live cell number [5, 6]: 124 ± 6
- live cell number [5, 7]: 188 ± 11

Compound: C[C@@]12CCC[C@H]1[C@@H]1CCc3cc(O)ccc3[C@H]1CC2 [E-3-ol, estratriene-3-ol]
- EC50 [4, 8]: 3680 nM
- EC50 [4, 9]: 14 nM

Compound: N[C@@H](CCC(=O)N[C@@H](CS)C(=O)NCC(=O)O)C(=O)O [GSH, glutathione]
- protection from β-AP toxicity ([3]; GSH 325 μM): significant protection
- EC50 ([3]; 72 h, read-out: ED50 of glutathione, βAP 25-35 (20 μM), absence of 17β-estradiol, 72 h): 32500 nM
- EC50 ([3]; 72 h, read-out: ED50 of glutathione, βAP 25-35 (20 μM), presence of 17β-estradiol (2 nM), 72 h): 325 nM
- EC50 ([3]; read-out: EC50 (GSH dose response, FIG. 2), βAP 25-35 (20 μM), without 17β-estradiol): 82500 ± 60400 nM
- EC50 ([3]; read-out: EC50 (GSH dose response, FIG. 2), βAP 25-35 + 17β-estradiol (2 nM)): 41 ± 25 nM
- neuroprotective effect ([3]; glutathione 3.25 μM, absence of 17β-estradiol): little neuroprotective effect
- fold greater neuroprotectivity than with glutathione alone ([3]; with 17β-estradiol (2 nM)): 1000 fold
- effect on β-AP (25-35) induced toxicity ([4]; dose of GSH used in these studies, by itself): no effect
- decrease in cell viability ([4]; presence of 3.25 pM GSH (so in the source)): 55±3%
- live cell number [5, 6]: 369 ± 7
- live cell number [5, 7]: 534 ± 16

Compound: O=C(O)CCCCC1CCSS1 (stereo not drawn) [Lipoic Acid, Lipoic acid]
- interaction with estrogen [5]: no apparent interactions
- live cell number [5, 6]: 406 ± 7
- live cell number [5, 7]: 416 ± 10

Compound: NCCS(=O)(=O)O [Taurine, 2-aminoethanoic acid]
- interaction with estrogen [5]: no apparent interactions
- live cell number [5, 6]: 402 ± 9
- live cell number [5, 7]: 439 ± 11

Compound: CC(=O)Oc1c(C)c(C)c2c(c1C)CCC(C)(CCCC(C)CCCC(C)CCCC(C)C)O2 (stereo not drawn) [Tocopherol, α-tocopherol acetate]
- interaction with estrogen [5]: no apparent interactions
- live cell number [5, 6]: 448 ± 12
- live cell number [5, 7]: 456 ± 14

Compound: C[C@]12CC[C@@H]3c4ccc(O)cc4CC[C@H]3[C@@H]1CC[C@H]2O [α-estradiol, 17 α-estradiol]
- EC50 [4, 8]: 1010 nM
- EC50 [4, 9]: 6 nM
- neuroprotection [4]: dose-dependent neuroprotection
- synergistic effect ([4]; with GSH, FIG. 5): marked synergistic effect

Compound: βAP 25-35: neurotoxic β-amyloid protein, a peptide of 10 amino acids (amino acids 25-35) (GSNKGAIIGLM; Amyloid-beta protein 42; UniProt P05067 696-706, looked up, fragment)
- reduction in the average number of viable cells per field ([2]; βAP 25-35 (10 μM), absence of GSH, 24 h): 39%
- cells killed ([4]; exposure to βAP 25-35): 50-60%
- decrease in cell viability ([4]; absence of GSH): 54±4%
- live cell number ([5]; βAP alone, Ascorbic Acid column): 118 ± 9
- live cell number ([5]; βAP alone, GSH): 331 ± 17
- live cell number ([5]; βAP alone, GSSG column): 331 ± 17
- live cell number ([5]; βAP alone, Lipoic Acid column): 408 ± 10
- live cell number ([5]; βAP alone, Taurine column): 408 ± 10
- live cell number ([5]; βAP alone, Tocopherol column): 366 ± 24
- Live Cell Number ± SEM ([1]; βAP (20 μM) alone): 189 ± 11 ×10^3 cells
